# Results from publication PMC11500415, “Chemical inhibition of stomatal differentiation by perturbation of the master-regulatory bHLH heterodimer via an ACT-Like domain” (Nature Communications, 2024).
# Several values for one entry are separate records, joined by “and”; a condition that tells them apart may be missing. Identical values can stand only once.
# How the values were obtained:
# [1] = system: stomatal movement; design: method as in PMID 35042960; settings: previous chemical screens and SAR studies; cited from earlier work
# [2] = target: T1, SCRM-FAMA heterodimer (Arabidopsis thaliana, UniProt Q56YJ8); assay: Ratiometric BiFC in N. benthamiana leaves; assay type: cell-based; settings: BiFC FAMA+SCRM, STOMI-treated, individual measurements
# T1 construct: heterodimerization of SCRM with full-length SPCH, MUTE, or FAMA in the context of the plant cells; combinations of split YFP constructs fused to the full-length stomatal bHLH proteins; nYFP (N terminus of EYFP, 174 amino acids); cYFP (C terminus of EYFP, 64 amino acids); expressed in transfected cells; host or cells: Nicotiana benthamiana leaves (Agrobacterium infiltration)
# T1 sequence (Q56YJ8 1-414): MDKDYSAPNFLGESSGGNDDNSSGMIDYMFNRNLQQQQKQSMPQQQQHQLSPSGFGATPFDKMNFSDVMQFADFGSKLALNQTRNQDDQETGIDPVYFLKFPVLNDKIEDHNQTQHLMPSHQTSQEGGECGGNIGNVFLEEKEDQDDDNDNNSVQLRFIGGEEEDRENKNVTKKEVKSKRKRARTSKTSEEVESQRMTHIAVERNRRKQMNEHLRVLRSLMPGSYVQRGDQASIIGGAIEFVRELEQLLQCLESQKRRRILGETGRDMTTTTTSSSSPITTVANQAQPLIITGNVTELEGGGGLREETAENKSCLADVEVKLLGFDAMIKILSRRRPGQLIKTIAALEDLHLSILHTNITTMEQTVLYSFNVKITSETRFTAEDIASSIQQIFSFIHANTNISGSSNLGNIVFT
# Description: (§1) For ratiometric BiFC assays, the cDNAs of SPCH, MUTE, and FAMA were cloned into the 35S CaMV promoter-driven destination vector pSPYNE, which contains the N terminus of the EYFP protein (nYFP-174 amino acids), while the cDNA of SCRM and SCRM2 was inserted into pSPYCE, which contains the C terminus of the EYFP protein (cYFP-64 amino acids) (see Supplementary Table 5 for detailed information of the constructs). The constructs were then transformed into Agrobacterium tumefaciens strain GV3101. The Agrobacterium was resuspended in infiltration buffer (10 mM MgCl2, 10 mM 2-(N-morpholino)ethanesulfonic acid [pH 5.6], and 150 µM acetosyringone). Bacterial culture densities were adjusted to a final optical density (OD600) of 1.0, and the cell suspensions were incubated at room temperature for 4 hours prior to infiltration. Equal volumes of cultures carrying the corresponding complementary pair of BiFC constructs (YFPn and YFPc), along with CaMV35S::Histone H2B-mScarlet-I3 and the silencing suppressor plasmid p19 (a gift from Dr. Sir David Baulcombe) were mixed and then co-infiltrated into 4-week-old N. benthamiana leaves. The infiltrated N. benthamiana leaves were incubated at 25 °C for 2 days. Subsequently, leaf discs were cut out and cultured in mock or in liquid 1/2 MS media in mock (DMSO) or 100 µM Stomidazolone for 1 day. Confocal imaging of N. benthamiana leaves was performed using a Leica SP8 confocal microscope using a 20X objective lens (Leica Microsystems), simultaneously capturing YFP (excitation at 518 nm and emission at 530 nm) and mScarlet-I3 (excitation at 569 nm and emission at 600 nm) differential interference contrast channels.
# [3] = target: T2, SCRM-MUTE heterodimer (Arabidopsis thaliana, UniProt Q9M8K6); assay: Ratiometric BiFC in N. benthamiana leaves; assay type: cell-based; settings: BiFC MUTE+SCRM, STOMI-treated, individual measurements
# T2 construct: expressed in transfected cells; host or cells: yeast strain AH109
# T2 sequence (Q9M8K6 1-202): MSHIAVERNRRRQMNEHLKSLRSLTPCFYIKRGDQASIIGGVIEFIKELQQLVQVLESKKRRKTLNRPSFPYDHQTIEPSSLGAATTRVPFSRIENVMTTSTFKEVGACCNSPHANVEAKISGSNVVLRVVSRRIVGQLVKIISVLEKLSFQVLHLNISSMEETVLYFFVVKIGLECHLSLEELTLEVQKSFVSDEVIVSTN
# Description: as §1
# [4] = target: T3, SCRM2-FAMA heterodimer (Arabidopsis thaliana, UniProt Q56YJ8); assay: Ratiometric BiFC in N. benthamiana leaves; assay type: cell-based; settings: FAMA-SCRM2 pair, STOMI-treated, rescaled, average of 20; DMSO 0.813227
# T3 construct: heterodimerization of SCRM with full-length SPCH, MUTE, or FAMA in the context of the plant cells; we performed rBiFC assays using full-length SCRM2; nYFP (N terminus of EYFP, 174 amino acids); cYFP (C terminus of EYFP, 64 amino acids); expressed in transfected cells; host or cells: Nicotiana benthamiana leaves (Agrobacterium infiltration)
# Description: as §1
# [5] = target: T4, SCRM2-MUTE heterodimer (Arabidopsis thaliana, UniProt Q9M8K6); assay: Ratiometric BiFC in N. benthamiana leaves; assay type: cell-based; settings: MUTE-SCRM2 pair, STOMI-treated, rescaled, average of 20; DMSO 0.692877
# T4 construct: heterodimerization of SCRM with full-length SPCH, MUTE, or FAMA in the context of the plant cells; nYFP (N terminus of EYFP, 174 amino acids); expressed in transfected cells; host or cells: Nicotiana benthamiana leaves (Agrobacterium infiltration)
# Description: as §1
# [6] = target: T5, SCRM2-SPCH heterodimer (Arabidopsis thaliana, UniProt Q700C7); assay: Ratiometric BiFC in N. benthamiana leaves; assay type: cell-based; settings: SPCH-SCRM2 pair, STOMI-treated, rescaled, average of 20; DMSO 0.870846
# T5 construct: heterodimerization of SCRM with full-length SPCH, MUTE, or FAMA in the context of the plant cells; we performed rBiFC assays using full-length SCRM2; nYFP (N terminus of EYFP, 174 amino acids); cYFP (C terminus of EYFP, 64 amino acids); expressed in transfected cells; host or cells: Nicotiana benthamiana leaves (Agrobacterium infiltration)
# Description: as §1
# [7] = target: T6, SCRM-SPCH heterodimer (Arabidopsis thaliana, UniProt Q700C7); assay type: cell-based; settings: STOMI-treated
# T6 construct: heterodimerization of SCRM with full-length SPCH, MUTE, or FAMA in the context of the plant cells; combinations of split YFP constructs fused to the full-length stomatal bHLH proteins; nYFP (N terminus of EYFP, 174 amino acids); cYFP (C terminus of EYFP, 64 amino acids); expressed in transfected cells; host or cells: Nicotiana benthamiana leaves (Agrobacterium infiltration)
# T6 sequence (Q700C7 1-364): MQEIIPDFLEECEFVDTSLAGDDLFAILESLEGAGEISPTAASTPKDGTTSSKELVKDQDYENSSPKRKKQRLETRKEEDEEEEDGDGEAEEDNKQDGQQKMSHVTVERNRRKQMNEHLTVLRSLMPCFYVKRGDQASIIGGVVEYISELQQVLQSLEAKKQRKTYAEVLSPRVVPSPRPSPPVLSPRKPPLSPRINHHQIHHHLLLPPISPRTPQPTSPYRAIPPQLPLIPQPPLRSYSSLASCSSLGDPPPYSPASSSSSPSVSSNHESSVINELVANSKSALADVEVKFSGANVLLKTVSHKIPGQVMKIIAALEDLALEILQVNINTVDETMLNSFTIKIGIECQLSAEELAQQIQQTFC
# Description: as §1
# [8] = target: T7, empty+SCRM (control) (Arabidopsis thaliana, UniProt Q9LSE2); assay: Ratiometric BiFC, control empty+SCRM; assay type: cell-based; settings: STOMI-treated, individual measurements
# T7 construct: split YFP constructs fused to the full-length stomatal bHLH proteins; expressed in transfected cells; host or cells: Nicotiana benthamiana leaves (Agrobacterium infiltration)
# T7 sequence (Q9LSE2 1-494): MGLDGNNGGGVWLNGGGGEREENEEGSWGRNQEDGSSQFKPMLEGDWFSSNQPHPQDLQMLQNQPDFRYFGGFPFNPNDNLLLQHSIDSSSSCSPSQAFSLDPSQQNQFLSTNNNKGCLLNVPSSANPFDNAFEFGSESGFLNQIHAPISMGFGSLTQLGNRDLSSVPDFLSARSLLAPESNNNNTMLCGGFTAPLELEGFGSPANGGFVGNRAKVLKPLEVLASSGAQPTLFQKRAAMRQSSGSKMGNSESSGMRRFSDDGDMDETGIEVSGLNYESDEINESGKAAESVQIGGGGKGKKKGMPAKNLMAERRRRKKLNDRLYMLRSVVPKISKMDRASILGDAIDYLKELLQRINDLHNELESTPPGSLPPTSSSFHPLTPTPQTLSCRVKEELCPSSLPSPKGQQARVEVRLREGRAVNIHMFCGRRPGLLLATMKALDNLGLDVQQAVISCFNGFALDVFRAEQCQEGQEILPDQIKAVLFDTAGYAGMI
# [9] = BiFC SPCH+SCRM, individual measurements
Structure (SMILES),effect on stomatal movement (in words) [1],YFP [2],YFP/mScarlet [2],mScarlet [2],YFP [3],YFP/mScarlet [3],mScarlet [3],"BiFC YFP/mScarlet signal intensity ratio, average [4]","BiFC YFP/mScarlet signal intensity ratio, average [5]","BiFC YFP/mScarlet signal intensity ratio, average [6]","YFP [7, 9]","mScarlet [7, 9]","BiFC YFP/mScarlet signal intensity ratio, average ([7]; SPCH-SCRM pair, rescaled, average of 20, DMSO 0.999748)",YFP [8],YFP/mScarlet [8],mScarlet [8]
O=S(=O)(c1ccccc1)N(c1oc(-c2ccccc2)nc1-c1ccccc1)S(=O)(=O)c1ccccc1 [SIM1],inhibit stomatal movement,–,–,–,–,–,–,–,–,–,–,–,–,–,–,–
O=C1C(c2ccccc2)=NC(NS(=O)(=O)c2ccccc2)(c2ccccc2)N1S(=O)(=O)c1ccccc1 (racemic) [STOMI],–,186.917 and 54.749 and 197.322 and 78.346 and 117.223 and 50.688,0.9773 and 1.064 and 0.9455 and 1.191 and 0.9038 and 0.8169,191.252 and 51.452 and 208.697 and 65.781 and 129.694 and 62.052,1.16E+01 and 3.104 and 3.249 and 11.738 and 9.681 and 6.858,0.2554 and 0.01703 and 0.0181 and 0.2123 and 0.2385 and 0.1574,45.576 and 182.295 and 179.515 and 55.282 and 40.598 and 43.561,0.1443,0.1063,0.1468,42.813 and 234.339 and 61.532 and 61.417 and 224.742 and 142.963,36.031 and 235.498 and 75.919 and 70.723 and 231.024 and 153.918,0.9445,0.095 and 0.409 and 0 and 0.026 and 5.60E-04 and 0.042,0.0009064 and 0.01087 and 0 and 0.0008066 and 3.5039e-6 and 0.000976,104.805 and 37.637 and 55.755 and 32.234 and 159.765 and 43.034
